Columns and labels:
[1] = Pharmacokinetic study in rats after single oral administration of ZGI, DGE, PA or S. officinalis extract (plasma, UHPLC-MS/MS); assay type: in vivo, Sprague-Dawley rats; settings: for conversion in vivo after oral administration (in words): rats, oral administration of the monomer, from plasma levels of ZGI, DGE, PA
Source text: The UHPLC–MS/MS method was successfully used in the pharmacokinetic studies of the three analytes after single dose administration of ZGI, DGE, PA, and S. officinalis extract in rats (0.55 g/kg, equivalent to 0.03, 0.013, and 0.007 g/kg of ZGI, DGE, and PA, respectively). Based on the body surface area calculations of people and the animals and equivalent dose conversion calculations, the dosage of the rats was 0.55 g/kg.
The experimental protocol was permitted by the Animal Ethics Committee of Harbin Medical University (Approval Code: AECHMU20150021, Approval Date: 3 June 2015) and conformed to the principles for the Care and Use of Laboratory Animals. Twenty-four male Sprague-Dawley rats (weighting 200 ± 20 g), which were provided by the Laboratory Animal Center at Harbin Medical University (Harbin, China), were used for the pharmacokinetic study. The animals were maintained in a SPF-grade room on a 12 h light/dark cycle with a controlled temperature conditions (21 ± 2 °C) and relative humidity (50 ± 5%) before the experiment. During the adaptation process, all rats were provided with standard food and purified water each morning and evening. Each rat fasted for 12 h before giving the drug and was randomly divided into one of four groups (n = 6).
A single dose of the S. officinalis extract (0.55 g/kg, group I), ZGI (0.03 g/kg, group II), DGE ([…], group III), and PA (0.013 g/kg, group IV) was administrated to the rats. The S. officinalis extract was dissolved in water. A single dose of 0.55 g/kg of S. officinalis extract was administrated to the rats. Blood was obtained from the retinal venous plexus at 0, 0.083, 0.5, 1.0, 1.5, 2.0, 2.5, 3.0, 4.0, 6.0, 8.0, 12.0, and 24.0 h after dosing. The plasma was immediately separated by centrifugation at 8000 rpm for 4 min at −4 °C.
The maximum concentration (Cmax) and the time to attain it (Tmax) were observed directly from the measured data. The elimination rate constant (Ke) was calculated by linear regression of the terminal points in a semi-log plot of the plasma concentration against time. The area under plasma concentration–time curve (AUC0→t) to the last measurable plasma concentration (Ct) was estimated using the linear trapezoidal rule.
Calculate the amount of three compounds using linear regression from the standard curve. The pharmacokinetic parameters of the analytes were calculated with DAS 2.0 (Shanghai, China). All results were expressed as mean ± SD. The comparison of pharmacokinetic parameters was conducted using standard Student’s t-test. Differences between groups were assumed statistically significant for p values < 0.05.

[2] = Stability of the three analytes in rat plasma under various storage conditions; assay type: in vitro ADME; settings: n = 6; for Stability (% RE) Post-Preparative: 12 h after sample preparation at 4 °C; for Stability (% RE) Short-Term / Stability (% RE) Three Freeze-Thaw: rat plasma; for Stability (% RE) Short-Term: 4 h at ambient temperature; for Stability (% RE) Three Freeze-Thaw: three freeze-thaw cycles at −20 °C
Protocol: The stability of rat plasma under different storage conditions was determined. […] All compounds maintained steady levels for […].
The stability of the three compounds in rat plasma, including freeze and thaw stability (three freeze-thaw cycles at −20 °C), long-term stability (storage for 2 weeks at −80 °C), room temperature stability (storage for 4 h at ambient temperature), and post-preparation stability (storage for 12 h after sample preparation at 4 °C), was tested at two QC levels with six replicates at each level. All stability testing QC samples were determined using the calibration curve of freshly prepared standard samples.

[3] = as above; assay type: in vitro ADME; settings: storage for 2 weeks at −80 °C (b26 says −20 °C), n = 6
[4] = high QC (ZGI 2080, DGE 1840, PA 840.0 ng/mL)
[5] = low QC (ZGI 19.5, DGE 17.4, PA 7.8 ng/mL)

Row | conversion in vivo after oral administration (in words) [1] | Stability (% RE) Post-Preparative [2, 4] | Stability (% RE) Post-Preparative [2, 5] | Stability (% RE) Short-Term [2, 4] | Stability (% RE) Short-Term [2, 5] | Stability (% RE) Three Freeze-Thaw [2, 4] | Stability (% RE) Three Freeze-Thaw [2, 5] | Stability (% RE) Long-Term [3, 4] | Stability (% RE) Long-Term [3, 5] | Cmax ([1]; male, Sprague-Dawley, analyte ZGI in rat plasma, single oral dose of the row's substance (S. officinalis extract 0.55 g/kg, ZGI 0.03 g/kg), n = 6, mean ± SD) | Tmax ([1]; male, Sprague-Dawley, analyte ZGI in rat plasma, single oral dose of the row's substance (extract 0.55 g/kg, ZGI 0.03 g/kg), n = 6) | half-life ([1]; male, Sprague-Dawley, analyte ZGI in rat plasma, single oral dose of the row's substance (extract 0.55 g/kg, ZGI 0.03 g/kg), n = 6, read-out: t1/2 of ZGI (converted)) | SMILES
1 | may be transformed into PA | 7.7 % RE | 14 % RE | 0.70 % RE | 8.4 % RE | 3.5 % RE | 3.3 % RE | 5.8 % RE | 9.6 % RE |  |  |  | CC1CCC2(C(=O)OC3OC(CO)C(O)C(O)C3O)CCC3(C)C(=CCC4C5(C)CCC(O)C(C)(C)C5CCC43C)C2C1(C)O [DGE, 3β,19α-dihydroxyurs-12-en-28-oic-acid 28-β-D-glucopyranosyl ester]
2 | cannot convert into ZGI and DGE | 13 % RE | 7.1 % RE | 3.1 % RE | −5.0 % RE | 5.2 % RE | 12 % RE | 7.6 % RE | 13 % RE |  |  |  | C[C@@H]1CC[C@]2(C(=O)O)CC[C@]3(C)C(=CC[C@@H]4[C@@]5(C)CC[C@H](O)C(C)(C)[C@@H]5CC[C@]43C)[C@@H]2[C@]1(C)O [PA, pomolic acid]
3 | may be converted into DGE and PA | 6.4 % RE | 9.2 % RE | 2.4 % RE | 14 % RE | 2.8 % RE | 6.2 % RE | 3.4 % RE | 15 % RE | 678 ± 47 ng/mL | 1.4 ± 0.2 h | 11 ± 1 h | C[C@@H]1CC[C@]2(C(=O)O[C@@H]3O[C@H](CO)[C@@H](O)[C@H](O)[C@H]3O)CC[C@]3(C)C(=CC[C@@H]4[C@@]5(C)CC[C@H](O[C@@H]6OC[C@H](O)[C@H](O)[C@H]6O)C(C)(C)[C@@H]5CC[C@]43C)[C@@H]2[C@]1(C)O [ZGI, Ziyuglycoside I]

Source: PMC9458004, “Simultaneous Determination and Pharmacokinetics Study of Three Triterpenes from Sanguisorba officinalis L. in Rats by UHPLC–MS/MS” (Molecules, 2022)
